Source: patent US4987144A, “1,3-bis(1,2,4-triazol-1-yl)2-(4-trifluoromethylphenyl)propan-2-ol useful for the prevention and/or treatment of deep-seated mycosis” (SS Pharmaceutical Co., Ltd., priority 1989, dated 1991)

Columns and labels:
[1] = tested on: Candida albicans; test: Antimycotic activities of similar compounds in a manner similar to Test 1, oral administration (Referential Test); format: in vivo, Candida albicans (in male ICR mice); conditions: in Mus musculus, 336 h, read-out: T/C; for response vs control in vivo at 40 mg: Dose (mg) 40, oral
Experimental: (§1) Male ICR mice of 4 weeks old were used as groups, each consisted of 5 mice. Each mouse was inoculated at caudal vein with 2.8×106^6 cells of Candida albicans. From one hour after the inoculation, each test compound was dissolved in 0.5 mλ of 0.06 N hydrochloric acid which had been added with "0.2% TO-10M" (trade name; product of Nikko Chemicals Co., Ltd.) and was orally administered once a day, four times in total. The mice were observed until the 14th day after the inoculation of the fungus. The average survival days of each group was compared with those of the control group to determine T/C (%). [formula]
In a manner similar to Test 1, antimycotic activities of each of the test compounds shown below in Table 2 were investigated. As will be readily envisaged from the results, practically no antimycotic activities were observed from the oral administration of those compounds.

[2] = tested on: Candida albicans; test: Antimycotic activities: survival of mice inoculated with Candida albicans, oral administration (Test 1); format: in vivo, Candida albicans (in male ICR mice); conditions: for T/C: once a day, four times, average survival days vs control, to 14th day after inoculation
Experimental: as §1

[3] = Measurement of body weight variations (Test 2); format: in vivo, male ICR mice; conditions: for body weight change after administration (in words): group administered with the compound; for body weight: 2.5 mg/Kg
[4] = Acute toxicity, oral; conditions: mouse, in vivo, mice, P.O.

With `N#Cc1ccc(C(O)(Cn2cncn2)Cn2cncn2)c(F)c1` as the molecule, how does the response vs control in vivo at 40 mg [1] read?
Its response vs control in vivo at 40 mg is 81%.

For `OC(Cn1cncn1)(Cn1cncn1)c1ccc(-c2ccc(F)cc2)cc1`, which response vs control in vivo at 40 mg [1] is on record?
Its response vs control in vivo at 40 mg is 136%.

For `CC(=O)Nc1ccc(C(O)(Cn2cncn2)Cn2cncn2)c(F)c1`, which response vs control in vivo at 40 mg [1] is on record?
The response vs control in vivo at 40 mg was 82%.

With `OC(Cn1cncn1)(Cn1cncn1)c1cc(C(F)(F)F)cc(C(F)(F)F)c1` as the molecule, how does the response vs control in vivo at 20 mg ([1]; Dose (mg) 20, oral) read?
The response vs control in vivo at 20 mg was 118%.

With `CCCOc1cc(F)ccc1C(O)(Cn1cncn1)Cn1cncn1` as the molecule, how does the response vs control in vivo at 40 mg [1] read?
Its response vs control in vivo at 40 mg is 125%.

With `Oc1c(F)cc(C(O)(Cn2cncn2)Cn2cncn2)cc1F` as the molecule, how does the response vs control in vivo at 40 mg [1] read?
The response vs control in vivo at 40 mg was 82%.

Which response vs control in vivo at 40 mg [1] does the source give for `COc1c(F)cc(C(O)(Cn2cncn2)Cn2cncn2)cc1F` here?
Its response vs control in vivo at 40 mg is 91%.

For `OC(Cn1cncn1)(Cn1cncn1)c1cc(F)c(OCc2ccccc2)c(F)c1`, which response vs control in vivo at 40 mg [1] is on record?
Its response vs control in vivo at 40 mg is 73%.

For `OC(Cn1cncn1)(Cn1cncn1)c1ccc(F)cc1OCc1ccccc1`, which response vs control in vivo at 40 mg [1] is on record?
The response vs control in vivo at 40 mg was 122%.

Which response vs control in vivo at 40 mg [1] does the source give for `OC(Cn1cncn1)(Cn1cncn1)c1ccc(F)cc1OCc1ccc(F)cc1` here?
The response vs control in vivo at 40 mg was 117%.

Which response vs control in vivo at 40 mg [1] does the source give for `Oc1cc(F)c(F)cc1C(O)(Cn1cncn1)Cn1cncn1` here?
The response vs control in vivo at 40 mg was 125%.

For `OC(Cn1cncn1)(Cn1cncn1)c1ccc(F)cc1F` [Fluconazole], which T/C ([2]; 1.25 mg/kg) is on record?
Its T/C is 143%.

What about the T/C ([2]; 2.5 mg/kg) of the same molecule?
Its T/C is 379%.

What about the T/C ([2]; 5 mg/kg) of the same molecule?
Its T/C is 443%.

And the “body weight change after administration (in words)” value [3]?
Its value is “body weight reductions were observed”.

Which results are given for `OC(Cn1cncn1)(Cn1cncn1)c1ccc(C(F)(F)F)cc1` [Triazole compound (I), 1,3-bis(1,2,4-triazol-l-yl)-2-(4-trifluoromethylphenyl)propan-2-ol]?
T/C ([2]; 1.25 mg/kg): 186%; T/C ([2]; 2.5 mg/kg): 385%; T/C ([2]; 5 mg/kg): 450%; apothanasia effects upon oral administration (in words) ([2]; compared with fluconazole): greater than fulconazole; body weight ([3]; 0 days after administration): 21.0 g; body weight ([3]; 1 day after administration): 20.6 g; body weight ([3]; 2 days after administration): 21.4 g; body weight ([3]; 3 days after administration): 22.2 g; body weight ([3]; 4 days after administration): 23.0 g; body weight ([3]; 5 days after administration): 23.3 g; body weight ([3]; 6 days after administration): 23.1 g; body weight change after administration (in words) [3]: the body weight increased steadily; LD50 [4]: 1200 mg/kg
